Key:
Assay type in all cases: biochemical
Kdr = biological target: T1, Kdr (Homo sapiens, UniProt P35968); experiment: Kinase inhibition assay (33P transfer), Kdr; conditions: Table 3; read-out: KDR-1
T1 construct: Kinases are expressed as either kinase domains or full length constructs; made in house
Outline: (§1)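 GST/His-tagged kinase (domain or full length; E. coli or baculovirus) + [33P]ATP on plates coated with poly(Glu,Tyr) 4:1 or poly(Arg,Ser) 3:1; incubate, wash 0.5% H3PO4, add scintillant, count.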

Lck = biological target: T2, Lck (Homo sapiens, UniProt P06239); experiment: Kinase inhibition assay (33P transfer), Lck; conditions: Table 3; read-out: Lck-1
T2 construct: Kinases are expressed as either kinase domains or full length constructs; made in house
T2 sequence (P06239 whole entry, species assumed, the tested form may be a part): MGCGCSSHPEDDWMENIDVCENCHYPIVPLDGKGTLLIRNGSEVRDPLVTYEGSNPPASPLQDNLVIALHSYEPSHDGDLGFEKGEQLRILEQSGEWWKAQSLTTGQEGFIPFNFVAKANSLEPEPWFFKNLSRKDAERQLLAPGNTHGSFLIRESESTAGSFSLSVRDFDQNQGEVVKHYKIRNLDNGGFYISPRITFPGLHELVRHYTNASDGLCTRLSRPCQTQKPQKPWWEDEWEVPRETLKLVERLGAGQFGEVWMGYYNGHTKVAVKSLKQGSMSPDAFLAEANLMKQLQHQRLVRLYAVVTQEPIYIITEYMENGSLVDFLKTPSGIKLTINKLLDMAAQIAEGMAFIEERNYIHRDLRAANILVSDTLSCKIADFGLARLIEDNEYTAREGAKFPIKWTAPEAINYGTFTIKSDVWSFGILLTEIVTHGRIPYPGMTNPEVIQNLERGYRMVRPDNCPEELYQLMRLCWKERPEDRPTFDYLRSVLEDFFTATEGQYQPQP
Outline: as §1

Zap-70 = biological target: T3, Zap-70 (Homo sapiens, UniProt P43403); experiment: Kinase inhibition assay (33P transfer), Zap-70; conditions: Table 3; read-out: Zap-1
T3 construct: Kinases are expressed as either kinase domains or full length constructs; made in house
T3 sequence (P43403 1-619): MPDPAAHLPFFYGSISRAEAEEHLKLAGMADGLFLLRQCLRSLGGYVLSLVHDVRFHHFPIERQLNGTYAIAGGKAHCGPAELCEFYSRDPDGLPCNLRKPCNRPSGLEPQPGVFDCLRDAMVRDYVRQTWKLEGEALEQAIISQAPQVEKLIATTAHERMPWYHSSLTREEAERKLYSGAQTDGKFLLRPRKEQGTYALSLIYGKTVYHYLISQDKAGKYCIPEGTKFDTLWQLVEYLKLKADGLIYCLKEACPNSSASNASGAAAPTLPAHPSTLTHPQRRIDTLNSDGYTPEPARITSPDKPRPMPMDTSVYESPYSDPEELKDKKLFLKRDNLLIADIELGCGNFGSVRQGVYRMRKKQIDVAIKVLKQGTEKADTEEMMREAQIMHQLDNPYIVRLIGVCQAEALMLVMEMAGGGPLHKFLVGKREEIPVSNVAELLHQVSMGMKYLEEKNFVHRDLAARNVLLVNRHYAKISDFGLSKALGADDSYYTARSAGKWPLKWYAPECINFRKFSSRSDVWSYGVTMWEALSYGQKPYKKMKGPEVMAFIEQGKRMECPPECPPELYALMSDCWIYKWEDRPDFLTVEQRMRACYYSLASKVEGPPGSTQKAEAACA
Outline: as §1

IGFR-1 = biological target: T4, IGFR-1 (Homo sapiens, UniProt P08069); experiment: Kinase inhibition assay (33P transfer), IGFR-1; conditions: Table 2, kinase inhibition class
T4 construct: Kinases are expressed as either kinase domains or full length constructs; made in house

ErbB4 = biological target: T5, ErbB4 (Homo sapiens, UniProt Q15303); experiment: Kinase inhibition assay (33P transfer), ErbB4; conditions: read-out: ErbB4-1
T5 construct: Kinases are expressed as either kinase domains or full length constructs; made in house

c-Met = biological target: T6, c-Met (Homo sapiens, UniProt P08581); experiment: Kinase inhibition assay (33P transfer), c-Met; conditions: Table 2, kinase inhibition class; read-out: Met-1
T6 construct: Kinases are expressed as either kinase domains or full length constructs; made in house
T6 sequence (P08581 25-1390): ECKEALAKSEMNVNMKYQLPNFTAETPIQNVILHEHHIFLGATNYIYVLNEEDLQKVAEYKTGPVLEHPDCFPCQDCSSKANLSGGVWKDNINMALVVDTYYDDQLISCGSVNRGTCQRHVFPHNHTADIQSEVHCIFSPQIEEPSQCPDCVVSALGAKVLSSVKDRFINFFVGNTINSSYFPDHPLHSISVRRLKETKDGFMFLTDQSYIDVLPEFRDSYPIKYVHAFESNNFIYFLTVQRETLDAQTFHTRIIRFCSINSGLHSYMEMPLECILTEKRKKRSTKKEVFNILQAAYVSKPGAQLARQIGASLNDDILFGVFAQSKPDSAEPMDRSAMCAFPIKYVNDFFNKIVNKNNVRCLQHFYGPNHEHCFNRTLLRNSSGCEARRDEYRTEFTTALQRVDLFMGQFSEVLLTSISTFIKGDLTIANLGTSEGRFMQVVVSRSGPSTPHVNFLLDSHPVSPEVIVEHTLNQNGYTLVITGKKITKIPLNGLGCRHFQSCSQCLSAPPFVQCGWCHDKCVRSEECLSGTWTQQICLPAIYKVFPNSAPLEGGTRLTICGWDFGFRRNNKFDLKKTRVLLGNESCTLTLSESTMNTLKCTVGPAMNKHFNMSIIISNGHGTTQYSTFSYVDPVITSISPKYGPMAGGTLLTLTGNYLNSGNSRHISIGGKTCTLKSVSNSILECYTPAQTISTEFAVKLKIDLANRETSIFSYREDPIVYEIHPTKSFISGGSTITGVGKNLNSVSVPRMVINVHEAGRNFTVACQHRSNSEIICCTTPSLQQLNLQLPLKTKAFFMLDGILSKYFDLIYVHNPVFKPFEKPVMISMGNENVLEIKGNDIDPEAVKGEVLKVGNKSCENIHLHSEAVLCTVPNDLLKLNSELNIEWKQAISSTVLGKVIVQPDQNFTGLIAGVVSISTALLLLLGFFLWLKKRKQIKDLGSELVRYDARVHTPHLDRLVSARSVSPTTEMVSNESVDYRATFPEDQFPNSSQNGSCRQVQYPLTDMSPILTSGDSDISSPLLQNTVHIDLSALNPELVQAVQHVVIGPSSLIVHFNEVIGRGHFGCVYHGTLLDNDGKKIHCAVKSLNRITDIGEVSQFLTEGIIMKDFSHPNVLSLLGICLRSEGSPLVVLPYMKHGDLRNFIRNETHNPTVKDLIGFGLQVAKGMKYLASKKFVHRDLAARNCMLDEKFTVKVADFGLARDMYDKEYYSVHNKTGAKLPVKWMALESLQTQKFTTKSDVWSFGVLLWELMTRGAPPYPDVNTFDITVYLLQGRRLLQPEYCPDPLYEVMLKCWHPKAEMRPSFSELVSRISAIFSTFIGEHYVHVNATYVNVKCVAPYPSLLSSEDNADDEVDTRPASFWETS
Outline: (§2)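 IC50: inhibitor concentration lowering 33P incorporation into immobilised substrate by 50%. Label transferred from ATP to poly(Glu,Tyr) 4:1 or poly(Arg,Ser) 3:1 is measured after a 0.5% phosphoric acid wash by liquid scintillation.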

EGFR = biological target: T7, EGFR (Homo sapiens, UniProt P00533); experiment: Kinase inhibition assay (33P transfer), EGFR; conditions: Table 2, kinase inhibition class; read-out: EGFR-1
T7 construct: Kinases are expressed as either kinase domains or full length constructs; made in house
T7 sequence (P00533 25-1210, species assumed): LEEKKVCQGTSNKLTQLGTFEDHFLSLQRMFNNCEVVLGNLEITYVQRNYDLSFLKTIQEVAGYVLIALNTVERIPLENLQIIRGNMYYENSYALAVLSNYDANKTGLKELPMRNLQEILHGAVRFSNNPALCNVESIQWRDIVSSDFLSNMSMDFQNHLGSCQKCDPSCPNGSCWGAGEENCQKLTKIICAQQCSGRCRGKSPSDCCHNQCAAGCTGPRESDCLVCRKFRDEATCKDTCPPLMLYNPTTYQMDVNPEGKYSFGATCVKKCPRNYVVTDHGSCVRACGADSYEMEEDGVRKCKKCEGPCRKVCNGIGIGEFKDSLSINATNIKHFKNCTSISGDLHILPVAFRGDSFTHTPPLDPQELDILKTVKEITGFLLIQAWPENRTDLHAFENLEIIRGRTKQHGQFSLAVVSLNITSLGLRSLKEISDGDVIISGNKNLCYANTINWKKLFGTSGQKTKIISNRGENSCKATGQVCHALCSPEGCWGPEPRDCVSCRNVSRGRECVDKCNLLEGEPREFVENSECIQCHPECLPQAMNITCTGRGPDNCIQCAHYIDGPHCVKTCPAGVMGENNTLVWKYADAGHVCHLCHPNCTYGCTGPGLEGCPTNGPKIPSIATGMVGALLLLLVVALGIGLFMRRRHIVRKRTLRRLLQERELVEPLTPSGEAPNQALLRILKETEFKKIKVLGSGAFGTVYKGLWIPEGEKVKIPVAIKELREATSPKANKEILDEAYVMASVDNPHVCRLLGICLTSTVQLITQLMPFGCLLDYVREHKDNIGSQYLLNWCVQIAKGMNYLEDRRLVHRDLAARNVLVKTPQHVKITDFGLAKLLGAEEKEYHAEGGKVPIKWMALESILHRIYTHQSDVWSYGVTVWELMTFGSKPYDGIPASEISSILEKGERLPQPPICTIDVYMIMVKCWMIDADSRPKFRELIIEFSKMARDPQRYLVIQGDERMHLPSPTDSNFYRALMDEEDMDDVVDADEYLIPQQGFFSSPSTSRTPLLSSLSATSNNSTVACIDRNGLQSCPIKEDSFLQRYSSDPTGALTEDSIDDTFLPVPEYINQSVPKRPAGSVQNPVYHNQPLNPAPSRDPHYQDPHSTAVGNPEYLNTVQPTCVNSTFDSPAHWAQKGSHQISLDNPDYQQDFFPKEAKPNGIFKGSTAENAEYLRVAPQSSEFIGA
Outline: as §2

Itk = biological target: T8, Itk (Homo sapiens, UniProt Q08881); experiment: Kinase inhibition assay (33P transfer), Itk; conditions: Table 3; read-out: Itk-1
T8 construct: Kinases are expressed as either kinase domains or full length constructs; made in house
T8 sequence (Q08881 1-620): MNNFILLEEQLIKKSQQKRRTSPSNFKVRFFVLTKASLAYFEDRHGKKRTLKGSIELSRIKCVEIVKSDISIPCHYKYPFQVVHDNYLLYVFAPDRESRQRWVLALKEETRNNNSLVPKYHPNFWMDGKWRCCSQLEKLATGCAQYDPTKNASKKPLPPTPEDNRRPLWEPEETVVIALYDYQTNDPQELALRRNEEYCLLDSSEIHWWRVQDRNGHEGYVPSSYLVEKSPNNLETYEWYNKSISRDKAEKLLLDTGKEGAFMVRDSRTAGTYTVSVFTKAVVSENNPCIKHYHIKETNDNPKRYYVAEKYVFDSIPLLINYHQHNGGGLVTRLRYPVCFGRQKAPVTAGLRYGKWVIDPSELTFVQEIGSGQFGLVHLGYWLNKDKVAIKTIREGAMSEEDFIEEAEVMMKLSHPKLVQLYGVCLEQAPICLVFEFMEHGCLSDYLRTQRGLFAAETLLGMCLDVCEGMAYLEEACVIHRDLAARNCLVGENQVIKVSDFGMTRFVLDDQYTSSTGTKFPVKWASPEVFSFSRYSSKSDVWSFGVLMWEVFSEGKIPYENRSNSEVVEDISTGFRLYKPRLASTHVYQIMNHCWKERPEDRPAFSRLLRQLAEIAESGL
Outline: as §2

EPHB4 = biological target: T9, EPHB4 (Homo sapiens, UniProt P54760); experiment: Kinase inhibition assay (33P transfer), EPHB4; conditions: read-out: EPHB4-1
T9 construct: Kinases are expressed as either kinase domains or full length constructs; made in house
T9 sequence (P54760 16-987): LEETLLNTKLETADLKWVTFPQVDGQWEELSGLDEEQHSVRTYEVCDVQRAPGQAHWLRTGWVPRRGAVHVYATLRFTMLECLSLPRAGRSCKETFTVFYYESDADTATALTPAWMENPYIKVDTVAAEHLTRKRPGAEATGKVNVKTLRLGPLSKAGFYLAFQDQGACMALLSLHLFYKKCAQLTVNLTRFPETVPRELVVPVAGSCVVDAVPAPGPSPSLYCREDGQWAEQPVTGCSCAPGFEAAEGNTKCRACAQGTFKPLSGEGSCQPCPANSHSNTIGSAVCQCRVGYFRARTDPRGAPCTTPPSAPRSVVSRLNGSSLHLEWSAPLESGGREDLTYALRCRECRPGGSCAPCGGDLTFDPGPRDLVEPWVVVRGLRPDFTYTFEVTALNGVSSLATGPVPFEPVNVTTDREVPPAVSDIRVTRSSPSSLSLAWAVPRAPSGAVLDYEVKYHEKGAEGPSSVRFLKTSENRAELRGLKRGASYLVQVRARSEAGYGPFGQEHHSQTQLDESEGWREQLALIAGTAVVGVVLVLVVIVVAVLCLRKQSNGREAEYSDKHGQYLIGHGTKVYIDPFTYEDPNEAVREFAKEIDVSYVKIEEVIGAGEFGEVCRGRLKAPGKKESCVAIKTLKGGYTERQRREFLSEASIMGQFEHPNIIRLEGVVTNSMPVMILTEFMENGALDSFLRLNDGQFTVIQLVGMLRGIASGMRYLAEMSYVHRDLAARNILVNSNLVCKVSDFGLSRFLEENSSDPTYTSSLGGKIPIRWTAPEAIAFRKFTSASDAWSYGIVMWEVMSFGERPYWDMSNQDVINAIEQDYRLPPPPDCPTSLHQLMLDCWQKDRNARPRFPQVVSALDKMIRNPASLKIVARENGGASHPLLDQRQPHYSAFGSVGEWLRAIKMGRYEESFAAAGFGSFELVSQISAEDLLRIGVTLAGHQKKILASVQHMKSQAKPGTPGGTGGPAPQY

AKT = biological target: T10, AKT (Homo sapiens, UniProt Q9Y243); experiment: Kinase inhibition assay (33P transfer), AKT; conditions: Table 2, kinase inhibition class; read-out: AKT3-1
T10 construct: Kinases are expressed as either kinase domains or full length constructs; made in house
T10 sequence (Q9Y243 whole entry, the tested form may be a part): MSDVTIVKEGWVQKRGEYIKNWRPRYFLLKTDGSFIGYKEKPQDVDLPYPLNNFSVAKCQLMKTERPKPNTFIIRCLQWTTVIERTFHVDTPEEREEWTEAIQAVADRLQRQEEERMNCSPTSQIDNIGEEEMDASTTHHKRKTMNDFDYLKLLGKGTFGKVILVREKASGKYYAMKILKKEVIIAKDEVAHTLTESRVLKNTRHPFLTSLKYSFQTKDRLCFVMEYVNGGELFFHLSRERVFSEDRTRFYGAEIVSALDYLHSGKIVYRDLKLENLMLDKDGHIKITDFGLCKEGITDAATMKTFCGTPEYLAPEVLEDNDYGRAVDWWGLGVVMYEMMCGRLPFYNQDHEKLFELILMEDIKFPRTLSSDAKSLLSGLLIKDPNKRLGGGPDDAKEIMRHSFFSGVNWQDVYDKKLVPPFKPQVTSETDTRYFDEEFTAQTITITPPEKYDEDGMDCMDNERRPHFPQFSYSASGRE
Outline: as §1

Tek = biological target: T11, Tek (Homo sapiens, UniProt Q02763); experiment: Kinase inhibition assay (33P transfer), Tek; conditions: read-out: Tek-1
T11 construct: Kinases are expressed as either kinase domains or full length constructs; made in house
Outline: as §2

T1 sequence (P35968 20-1356, species assumed): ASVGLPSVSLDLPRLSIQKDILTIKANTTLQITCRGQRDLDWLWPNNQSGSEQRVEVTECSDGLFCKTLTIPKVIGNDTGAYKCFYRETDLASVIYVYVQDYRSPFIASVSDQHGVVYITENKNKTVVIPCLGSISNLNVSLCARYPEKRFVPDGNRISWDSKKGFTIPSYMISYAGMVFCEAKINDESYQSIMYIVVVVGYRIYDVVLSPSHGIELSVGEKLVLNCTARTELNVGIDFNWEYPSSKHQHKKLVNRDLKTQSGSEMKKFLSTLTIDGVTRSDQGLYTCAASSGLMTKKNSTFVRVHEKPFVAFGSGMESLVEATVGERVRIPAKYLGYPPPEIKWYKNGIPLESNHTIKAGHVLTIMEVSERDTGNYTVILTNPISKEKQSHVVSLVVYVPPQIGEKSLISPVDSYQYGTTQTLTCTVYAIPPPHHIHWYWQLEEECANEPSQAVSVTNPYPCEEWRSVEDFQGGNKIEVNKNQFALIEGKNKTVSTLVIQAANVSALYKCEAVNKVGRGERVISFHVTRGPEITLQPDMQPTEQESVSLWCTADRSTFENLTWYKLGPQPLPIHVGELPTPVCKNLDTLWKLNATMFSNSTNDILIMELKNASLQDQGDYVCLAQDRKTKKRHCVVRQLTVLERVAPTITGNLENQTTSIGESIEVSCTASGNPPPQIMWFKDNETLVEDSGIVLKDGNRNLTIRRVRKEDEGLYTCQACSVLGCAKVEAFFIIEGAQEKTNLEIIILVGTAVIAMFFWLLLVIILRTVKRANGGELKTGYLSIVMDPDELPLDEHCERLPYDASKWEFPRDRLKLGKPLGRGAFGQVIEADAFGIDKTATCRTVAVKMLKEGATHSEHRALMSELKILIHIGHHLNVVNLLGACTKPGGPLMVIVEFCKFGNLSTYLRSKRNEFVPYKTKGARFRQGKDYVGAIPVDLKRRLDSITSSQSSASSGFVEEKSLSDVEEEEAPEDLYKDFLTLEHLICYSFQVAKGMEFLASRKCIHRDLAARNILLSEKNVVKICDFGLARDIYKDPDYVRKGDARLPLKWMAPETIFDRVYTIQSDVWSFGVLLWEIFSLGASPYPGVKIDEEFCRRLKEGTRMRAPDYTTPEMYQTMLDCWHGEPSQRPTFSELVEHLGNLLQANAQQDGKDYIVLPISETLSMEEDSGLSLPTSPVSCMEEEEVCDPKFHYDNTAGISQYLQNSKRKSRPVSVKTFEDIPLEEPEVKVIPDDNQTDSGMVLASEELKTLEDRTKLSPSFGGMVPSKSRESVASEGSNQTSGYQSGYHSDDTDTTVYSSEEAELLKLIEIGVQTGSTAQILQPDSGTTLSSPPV

Row | SMILES | IC50 (Kdr) [µM] | IC50 (Lck) [µM] | IC50 (Zap-70) [µM] | IC50 (IGFR-1) [µM] | IC50 (ErbB4) [µM] | IC50 (c-Met) [µM] | IC50 (EGFR) [µM] | IC50 (Itk) [µM] | IC50 (EPHB4) [µM] | IC50 (AKT) [µM] | IC50 (Tek) [µM]
1 | COc1cc(Nc2ncnc(Nc3ccc(C)c([N+](=O)[O-])c3)n2)cc(OC)c1OC [Compound 934] | 0.97 to 5.82 | > 10.9 | > 10.9 | < 0.97 | > 10.9 | > 10.9 | 0.97 to 5.82 | > 10.9 | 0.97 to 5.82 | > 10.9 | 
2 | COc1cc(Nc2ncnc(Nc3cccc(C(=O)O)c3)n2)cc(OC)c1OC [Compound 933] | 1.01 to 6.04 | 1.01 to 6.04 | > 11.3 | 1.01 to 6.04 | 1.01 to 6.04 | > 11.3 | < 1.01 | > 11.3 | 6.04 to 8.81 | > 11.3 | 
3 | COc1ccc(Nc2ncnc(Nc3cccc(Br)c3)n2)cc1OC [Compound 118] | > 11.2 | 8.7 to 11.2 | > 11.2 | 0.994 to 5.97 | > 11.2 | > 11.2 | < 0.994 | 0.994 to 5.97 | 0.994 to 5.97 | > 11.2 | > 11.2
4 | COc1cc(Nc2ncnc(Nc3cccc(OC(F)(F)F)c3)n2)cc(OC)c1OC [Compound 250] | 5.49 to 8 | 0.915 to 5.49 | > 10.3 | < 0.915 | 0.915 to 5.49 | > 10.3 | < 0.915 | > 10.3 | > 10.3 | > 10.3 | > 10.3
5 | Oc1cccc(Nc2ncnc(Nc3ccc(OCc4ccccc4)cc3)n2)c1 [Compound 159] | 6.23 to 9.08 | > 11.7 | 6.23 to 9.08 | 9.08 to 11.7 | > 11.7 | 1.04 to 6.23 | < 1.04 | > 11.7 | 6.23 to 9.08 | 1.04 to 6.23 | 6.23 to 9.08
6 | COc1ccc(Nc2ncnc(Nc3ccc(OCc4ccccc4)cc3)n2)cc1O [Compound 171] | > 10.8 | > 10.8 | > 10.8 | > 10.8 | > 10.8 | > 10.8 | < 0.963 | > 10.8 | 5.78 to 8.42 | 0.963 to 5.78 | > 10.8
7 | CCOC(=O)Cc1ccc(Nc2ncnc(Nc3cc(OC)c(OC)c(OC)c3)n2)cc1 [Compound 62] | 0.91 to 5.46 | 0.91 to 5.46 | > 10.2 | 0.91 to 5.46 | > 10.2 | 7.96 to 10.2 | < 0.91 | > 10.2 | > 10.2 | > 10.2 | > 10.2

Source: US7074789B2, “Kinase inhibitors” (Amgen Inc., priority 1999, dated 2006)
